Reference: patent US10188617B2, “Modulation of cellular DNA repair activity to intercept malignancy” (THE BOARD OF TRUSTEES OF THE LELAND STANFORD JUNIOR …, priority 2013, dated 2019)
pEC50: −log10 of the molar value.

Legend:
[1] = system: BER of ODD in BT474 cells (wild-type BRCA1); assay: DNA repair assay (oxidatively damaged GFP reporter gene), follow-up; type: cell-based, human; conditions: 20 μM, BT474, vs vehicle
Description: (§1) Human breast cancer cell lines that were deficient in BER (HCC1143, MDAMB468, HCC1937, and SUM149) or proficient in BER (BT474 and MCF7) were cultured according to American Type Culture Collection guidelines, with the exception of SUM149, which was cultured according to Asterand plc guidelines. Brca1^+/+ and Brca1^-/- mouse mammary epithelial […] previously described. Cells were treated with DMSO (vehicle control) or acetohexamide or benserazide as indicated for 24 hours at 37° C. and 5% CO2. The DNA repair assay was carried out as described in the examples below. Where indicated, BER (base excision mode of DNA repair) activity was expressed relative to the control (DMSO).

[2] = system: BER of ODD in HCC1937 cells (mutant BRCA1); assay: as above; type: cell-based, human; conditions: 20 μM, HCC1937, vs vehicle
Description: as §1

[3] = system: BER of ODD in MCF7 cells (wild-type BRCA1, BER-proficient); assay: as above; type: cell-based, human; conditions: 20 μM, MCF7, vs vehicle
Description: as §1

[4] = system: BER of ODD in SUM149 cells (mutant BRCA1, BER-defective); assay: as above; type: cell-based, human; conditions: for BER: 20 μM, SUM149, vs vehicle; for repair of oxidatively damaged GFP reporter gene, dose-response: SUM149PT cells, 24 hours treatment
Description: as §1

[5] = system: 8oxoG lesions in breast cancer cell lines with defective BER; assay: 8oxoG lesions (OxyFlow Kit); type: cell-based, human; conditions: time-dependent
Description: Cells were analyzed using the OxyFlow™ Kit (Hemogenix) according to the manufacturer's instructions.

[6] = system: H2O2-induced ODD in breast cancer cell lines with defective BER; assay: Alkaline comet assay modified for detection of oxidative lesions (FPG); type: cell-based, human; conditions: pretreatment, compared to undamaged control
Description: (§2) Cells were collected and embedded into CometAssay® LM Agarose (Trevigen) and placed on CometAssay® HT Slides (Trevigen) in duplicate. Cells were lysed at 4° C. in Lysis Buffer (Trevigen) for >24 hours. Slides were treated with or without FPG enzyme at 37° C. and 5% CO2 for 45 minutes to nick DNA at sites of ODD and then subjected to alkaline treatment at 4° C. for 40 minutes to denature DNA. Slides underwent electrophoresis under alkaline conditions to separate intact from damaged DNA. Following neutralization, DNA was stained using SYBR® green I and visualized as a comet in shape by fluorescent microscopy under 20× objective. […] CometScore software was used to quantify % DNA in Tail. Strand breaks were determined by % DNA in Tail in FPG-minus samples. ODD was determined by subtracting % DNA in Tail in FPG-minus samples from % DNA in Tail in FPG-plus samples.

[7] = system: BER-defective and BER-proficient cells; assay: Alkaline comet assay, strand breaks; type: cell-based; conditions: compared to the vehicle control; H2O2 positive control
Description: as §2

SUM149PT cells = assay: Hoechst live-cell staining (cell number); type: cell-based, human; conditions: concentrations up to 40 μM
Description: (§3) Cells were treated with acetohexamide for 48 hours in quadruplicate and then incubated with 2 μg/ml Hoechst 33358 live-cell dye for 20 minutes. Four representative fields for each replicate were imaged by the ImageXpress 5000A high-content imager (Molecular Devices). Nuclei were counted using MetaMorph® software (Molecular Devices) and expressed as a percentage relative to the vehicle control (DMSO).

[8] = system: other BER-defective breast cancer cell lines; assay: Hoechst live-cell staining (cell number); type: cell-based, human; conditions: 20 μM
Description: as §3

[9] = system: SUM149PT and other cell lines; assay: MTT assay (cell viability); type: cell-based, human; conditions: concentrations up to 1 mM, 72 hours
[10] = system: BER of ODD in SUM149PT cells; assay: High-throughput chemical screen with cell-based DNA repair assay (oxidatively damaged GFP reporter, host-cell reactivation);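 further: SUM149PT cells pretreated 24 h with compound, then given photodynamically oxidized adenoviral GFP reporter, 24 h host-cell reactivation, GFP read as repair, undamaged reporter positive and damaged reporter negative control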
[11] = system: BRCA1-mutant/deficient cells; assay: Soft agar colony formation assay (in vitro tumorigenesis); type: cell-based, human; conditions: 20 μM benserazide vs 1 μM tamoxifen and vehicle
Description: BRCA1 wild-type (MCF7) and mutant (HCC1937) cells (FIG. 14A) as well as MCF7 cells stably transduced with shRNA to BRCA1 or non-targeting control (FIG. 14B) were treated with vehicle control, 20 μM benserazide, or 1 μM tamoxifen and subjected to the soft agar colony formation assay, i.e. the standard assay for in vitro tumorigenesis. Colony formation represents tumorigenic potential. Tamoxifen is the current FDA-approved chemoprevention agent for breast cancer and a therapeutically-equivalent dose was used for comparison.

[12] = system: BRCA1 wild-type (MCF7) and mutant (HCC1937) cells; assay: Trypan blue exclusion assay (cell viability); type: cell-based, human; conditions: treated simultaneously with the colony formation assay
From the text: In FIG. 14C, BRCA1 wild-type (MCF7) and mutant (HCC1937) cells were simultaneously treated and then analyzed for cell viability by the trypan blue exclusion assay.

HCC1937 cells = assay: Mouse xenograft model of in vivo tumorigenesis (chemoprevention)
Description: For in vivo tumorigenesis, we utilized a mouse xenograft model that began treatment with the DNA repair-activating agent 24 hours prior to inoculation of HCC1937 cells into the mammary fat pad. Treatment with vehicle control, 50 mg/kg benserazide, or 250 mg/kg benserazide continued daily for up to 60 days while monitoring for tumor formation by palpitation. After the 60 days (i.e. study endpoint), serum was collected for analysis of 8oxodG levels, tumors (if present) were excised and weighed, and anatomy was analyzed for metastasis.

[13] = study endpoint 60 days, dose response

## CC(=O)c1ccc(S(=O)(=O)NC(=O)NC2CCCCC2)cc1 [Acetohexamide]
[1]
  BER: no effect on BER
[2]
  BER: statistically significant increase in BER
[3]
  BER: no effect on BER
[4]
  BER: statistically significant increase in BER
  repair of oxidatively damaged GFP reporter gene, dose-response: dose-response increase in repair of an oxidatively damaged GFP reporter gene
[4]; relative to the control (DMSO)
  relative BER activity: 1.68±0.13
[5]
  basal levels of 8oxoG lesions: decreased basal levels of 8oxoG lesions
[6]
  H2O2-induced ODD: decreased H2O2-induced ODD to levels similar to those of the undamaged control
[7]
  DNA strand breaks: did not significantly induce DNA strand breaks
SUM149PT cells
  number of cells (Hoechst 33342 staining): did not affect the number of SUM149PT cells
[8]
  cell number (Hoechst 33342 staining): nor did it affect the cell number
[9]
  cell viability (MTT): did not affect the cell viability
[10]; read-out: EC50 (image analysis), dose-response increase in GFP expression by imaging, 20 μM to 0.3 μM two-fold dilutions
  pEC50: 4.37
[10]; screening data by imaging, compared to negative control
  Hoechst-positive cells: 87.8%
[10]; sum of assigned priority scores, range 1-10, 10 = highest priority
  Priority score (summed priority score): 7

## NC(CO)C(=O)NNCc1ccc(O)c(O)c1O (stereo not shown) [benserazide, 2-amino-3-hydroxy-N′-[(2,3,4-trihydroxyphenyl)methyl]propanehydrazide]
[1]
  BER: no effect on BER
[2]
  BER: statistically significant increase in BER
[3]
  BER: no effect on BER
[4]
  BER: statistically significant increase in BER
  repair of oxidatively damaged GFP reporter gene, dose-response: dose-response increase in repair of an oxidatively-damaged GFP reporter gene
[11]
  in vitro tumorigenic potential (colony formation): prevented in vitro tumorigenesis
[11]; listed as Benserazide
  in vitro tumorigenic potential (colony formation): superior to tamoxifen at reducing in vitro tumorigenic potential
[12]
  cell viability (trypan blue exclusion): not due to a decrease in cell viability
HCC1937 cells; 50 or 250 mg/kg daily up to 60 days
  tumor formation over time: delayed tumor formation over time
HCC1937 cells; 50 or 250 mg/kg daily up to 60 days, started 24 hours prior to inoculation
  percentage of tumor-free mice: increased the percentage of tumor-free mice in a dose-response manner
HCC1937 cells; both concentrations (50 and 250 mg/kg), unlike vehicle control
  metastasis: prevented metastasis
HCC1937 cells; [13]
  serum levels of 8oxodG: increase serum levels of 8oxodG
  tumor weights: decrease tumor weights
